SMILES strings stand for the structures.

Here are results for one compound from patent publication US5198552A, “Indole derivative having antiviral, interferon-inducing and immunomodulatory effects” (priority 1991, dated 1993).

The nature of data set [1]: Maximum tolerable concentration for chick embryo fibroblasts. It counts as cell-based. Particulars: chicken.
Data set [2] concerns influenza viruses. The experiment in a line: Virucidal action on influenza viruses.
The conditions of data set [3]: clinical trials.
Data set [4] can be described thus: Physical properties of the compound (heating, solubility, hygroscopicity, pH of solution). It counts as physicochemical. The method, then:
The compound according to the invention is a crystalline powder, having a colour from white with tints of green-yellow to light-yellow with green hues; a bitter in taste, odourless. The melting point of the compound is not characteristic.
The solution containing 1 g of the compound in 1450 ml of water at 25° C. has pH of 4.37 (potentiometrically).

Compound `CCOC(=O)c1c(CSc2ccccc2)n(C)c2cc(Br)c(O)c(CN(C)C)c12.Cl.O` [preparation of the invention, ethyl 6-bromo-5-hydroxy-4-dimethylaminomethyl-1-methyl-2-phenylthiomethylindole-3-carboxylate hydrochloride monohydrate] had an MNTC in data set [1] of 20 µg/mL. Moreover, the “virucidal action on influenza viruses” value in data set [2] is given as “No virucidal action”. Further, in data set [3], the “toxicity / tolerability in patients” value is reported as “non-toxic, is well tolerated by patients”. Also, the hygroscopicity result in data set [4] is listed as “non-hydroscopic”. The pH of solution in data set [4] (1 g of the compound in 1450 ml of water at 25° C., potentiometrically) was 4.37. Besides, the behaviour when heated result in data set [4] (heated for 3 hours at 110° to 120° C.) was “looses the molecule of H2 O”. Moreover, the “solubility in water, methanol, ethanol” value in data set [4] (water, methanol, ethanol) is recorded as “poorly soluble”.
